15 compounds from patent publication US12297194B2, “N2-phenylpyrimidine-2,4-diamine compounds, and preparation methods and methods of use thereof” (BRIDGE BIOTHERAPEUTICS, INC., priority 2021, dated 2025) can be followed below.

Holding throughout (format): cell-based, murine
Experiment [1] has as its target Ba/F3 EGFR Wild-type (Homo sapiens, UniProt P00533). Kind of experiment: CellTiter-Glo cell viability, Ba/F3 EGFR wild-type cells. The settings on record: 72 hours, read-out: Ba/F3 EGFR mutant cell (IC50, nM) WT. The method in brief:
(§1)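 IC50s come from CellTiter-Glo ATP luminescence after 72 h of compound exposure (0, 0.3 up to 2000 nM, 10 concentrations). Ba/F3 lines carried wild-type or mutant EGFR and were plated at 2500 cells/well one day before treatment.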
On the technique in general: ATP-based viability assays read luminescence as a measure of living cells.

The target in experiment [2] is Ba/F3 EGFR L858R/C797S mutants (Homo sapiens, UniProt P00533, C797S/L858R, cells depend on it). Kind of experiment: CellTiter-Glo cell viability, Ba/F3 EGFR L858R/C797S cells. The settings on record: 72 hours, read-out: Ba/F3 EGFR mutant cell (IC50, nM) L/C. The method, boiled down: as §1
Experiment [3] deals with Ba/F3 EGFR L858R/T790M/C797S mutants (Homo sapiens, UniProt P00533, T790M/C797S/L858R, cells depend on it). Description: CellTiter-Glo cell viability, Ba/F3 EGFR L858R/T790M/C797S cells. The settings on record: 72 hours, read-out: Ba/F3 EGFR mutant cell (IC50, nM) L/T/C. The method in brief:
as §1

The target of experiment [4] is Ba/F3 EGFR Del19/T790M mutants (Homo sapiens, UniProt P00533, T790M, cells depend on it, form not given). Description: CellTiter-Glo cell viability, Ba/F3 EGFR Del19/T790M cells. The settings on record: 72 hours, read-out: Ba/F3 EGFR mutant cell (IC50, nM) D/T. The method, boiled down: as §1
For experiment [5], the target named is Ba/F3 EGFR Del19/C797S mutants (Homo sapiens, UniProt P00533, C797S, cells depend on it, form not given). Description: CellTiter-Glo cell viability, Ba/F3 EGFR Del19/C797S cells. The settings on record: 72 hours, read-out: Ba/F3 EGFR mutant cell (IC50, nM) D/C. The method, boiled down:
as §1

In experiment [6] the target is Ba/F3 EGFR Del19/T790M/C797S mutants (Homo sapiens, UniProt P00533, T790M/C797S, cells depend on it, form not given). Description: CellTiter-Glo cell viability, Ba/F3 EGFR Del19/T790M/C797S cells. The settings on record: 72 hours, read-out: Ba/F3 EGFR mutant cell (IC50, nM) D/T/C. The method in brief:
as §1

Ba/F3 EGFR Del19/C797S mutants, sequence (P00533 with tags, fused parts or gaps DEL746-750/C797S, form open): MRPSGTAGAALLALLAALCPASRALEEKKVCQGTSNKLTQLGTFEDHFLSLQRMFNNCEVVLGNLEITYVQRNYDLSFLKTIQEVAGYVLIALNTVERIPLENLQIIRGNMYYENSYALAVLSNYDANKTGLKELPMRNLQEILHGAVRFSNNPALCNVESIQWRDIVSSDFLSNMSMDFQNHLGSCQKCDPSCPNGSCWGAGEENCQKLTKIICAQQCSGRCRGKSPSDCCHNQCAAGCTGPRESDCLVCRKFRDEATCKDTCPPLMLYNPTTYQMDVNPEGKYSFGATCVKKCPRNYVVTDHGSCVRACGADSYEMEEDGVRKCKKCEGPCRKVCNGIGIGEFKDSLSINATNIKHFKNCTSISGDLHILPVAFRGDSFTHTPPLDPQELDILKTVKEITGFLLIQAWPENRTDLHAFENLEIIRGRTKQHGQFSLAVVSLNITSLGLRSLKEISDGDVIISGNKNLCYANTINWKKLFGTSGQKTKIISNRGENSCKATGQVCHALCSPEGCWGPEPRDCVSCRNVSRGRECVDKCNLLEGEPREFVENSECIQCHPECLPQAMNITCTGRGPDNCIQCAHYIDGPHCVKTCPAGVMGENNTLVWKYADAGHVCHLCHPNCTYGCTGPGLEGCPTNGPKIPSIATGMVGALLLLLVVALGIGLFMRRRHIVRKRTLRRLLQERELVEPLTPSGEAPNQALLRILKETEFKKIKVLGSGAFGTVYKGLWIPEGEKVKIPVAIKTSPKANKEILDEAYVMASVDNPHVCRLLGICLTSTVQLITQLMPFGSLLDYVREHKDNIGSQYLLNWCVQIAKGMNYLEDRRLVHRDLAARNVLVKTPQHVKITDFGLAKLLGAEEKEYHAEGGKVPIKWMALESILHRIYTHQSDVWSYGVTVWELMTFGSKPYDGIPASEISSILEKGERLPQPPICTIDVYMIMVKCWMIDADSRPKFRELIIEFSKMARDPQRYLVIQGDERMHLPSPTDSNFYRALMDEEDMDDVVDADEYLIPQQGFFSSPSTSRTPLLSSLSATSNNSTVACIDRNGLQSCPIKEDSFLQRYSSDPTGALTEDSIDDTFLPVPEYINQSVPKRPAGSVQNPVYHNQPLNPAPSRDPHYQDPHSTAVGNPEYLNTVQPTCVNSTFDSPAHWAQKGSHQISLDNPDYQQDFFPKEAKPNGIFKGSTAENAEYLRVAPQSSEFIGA
Ba/F3 EGFR Del19/T790M/C797S mutants, sequence (P00533 with tags, fused parts or gaps DEL746-750/T790M/C797S, form open): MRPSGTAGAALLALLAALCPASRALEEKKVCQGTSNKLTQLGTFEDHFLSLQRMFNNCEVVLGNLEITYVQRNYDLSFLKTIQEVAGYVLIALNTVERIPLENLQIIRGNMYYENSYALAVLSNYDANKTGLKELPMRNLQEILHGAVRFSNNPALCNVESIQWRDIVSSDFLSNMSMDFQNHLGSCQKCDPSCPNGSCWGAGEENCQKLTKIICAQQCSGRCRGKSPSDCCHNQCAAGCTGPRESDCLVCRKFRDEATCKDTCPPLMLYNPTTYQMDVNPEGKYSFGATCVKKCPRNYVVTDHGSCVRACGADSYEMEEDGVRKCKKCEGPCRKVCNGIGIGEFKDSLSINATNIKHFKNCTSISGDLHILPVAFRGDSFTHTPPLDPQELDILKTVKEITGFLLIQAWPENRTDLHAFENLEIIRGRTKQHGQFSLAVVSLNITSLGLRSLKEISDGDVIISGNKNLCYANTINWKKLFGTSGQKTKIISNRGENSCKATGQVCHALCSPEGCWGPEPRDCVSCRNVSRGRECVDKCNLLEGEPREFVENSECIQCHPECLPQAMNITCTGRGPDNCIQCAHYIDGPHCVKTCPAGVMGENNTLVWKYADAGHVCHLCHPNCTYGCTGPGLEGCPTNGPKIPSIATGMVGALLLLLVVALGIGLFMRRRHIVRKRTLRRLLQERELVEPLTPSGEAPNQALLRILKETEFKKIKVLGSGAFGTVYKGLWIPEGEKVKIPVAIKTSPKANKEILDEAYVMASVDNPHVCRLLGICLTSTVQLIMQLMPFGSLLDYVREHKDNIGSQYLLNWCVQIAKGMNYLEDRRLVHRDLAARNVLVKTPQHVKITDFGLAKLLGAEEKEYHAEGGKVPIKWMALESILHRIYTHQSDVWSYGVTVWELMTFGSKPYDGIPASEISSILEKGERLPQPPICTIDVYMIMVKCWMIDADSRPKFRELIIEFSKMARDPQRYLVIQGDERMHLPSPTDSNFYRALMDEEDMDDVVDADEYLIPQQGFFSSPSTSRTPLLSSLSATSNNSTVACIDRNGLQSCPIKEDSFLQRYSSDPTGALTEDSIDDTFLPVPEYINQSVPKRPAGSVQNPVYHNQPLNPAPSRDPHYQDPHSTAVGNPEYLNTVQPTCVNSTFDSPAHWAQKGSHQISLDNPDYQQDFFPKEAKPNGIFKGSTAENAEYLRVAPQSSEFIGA
Ba/F3 EGFR L858R/C797S mutants, sequence (P00533 whole entry C797S/L858R): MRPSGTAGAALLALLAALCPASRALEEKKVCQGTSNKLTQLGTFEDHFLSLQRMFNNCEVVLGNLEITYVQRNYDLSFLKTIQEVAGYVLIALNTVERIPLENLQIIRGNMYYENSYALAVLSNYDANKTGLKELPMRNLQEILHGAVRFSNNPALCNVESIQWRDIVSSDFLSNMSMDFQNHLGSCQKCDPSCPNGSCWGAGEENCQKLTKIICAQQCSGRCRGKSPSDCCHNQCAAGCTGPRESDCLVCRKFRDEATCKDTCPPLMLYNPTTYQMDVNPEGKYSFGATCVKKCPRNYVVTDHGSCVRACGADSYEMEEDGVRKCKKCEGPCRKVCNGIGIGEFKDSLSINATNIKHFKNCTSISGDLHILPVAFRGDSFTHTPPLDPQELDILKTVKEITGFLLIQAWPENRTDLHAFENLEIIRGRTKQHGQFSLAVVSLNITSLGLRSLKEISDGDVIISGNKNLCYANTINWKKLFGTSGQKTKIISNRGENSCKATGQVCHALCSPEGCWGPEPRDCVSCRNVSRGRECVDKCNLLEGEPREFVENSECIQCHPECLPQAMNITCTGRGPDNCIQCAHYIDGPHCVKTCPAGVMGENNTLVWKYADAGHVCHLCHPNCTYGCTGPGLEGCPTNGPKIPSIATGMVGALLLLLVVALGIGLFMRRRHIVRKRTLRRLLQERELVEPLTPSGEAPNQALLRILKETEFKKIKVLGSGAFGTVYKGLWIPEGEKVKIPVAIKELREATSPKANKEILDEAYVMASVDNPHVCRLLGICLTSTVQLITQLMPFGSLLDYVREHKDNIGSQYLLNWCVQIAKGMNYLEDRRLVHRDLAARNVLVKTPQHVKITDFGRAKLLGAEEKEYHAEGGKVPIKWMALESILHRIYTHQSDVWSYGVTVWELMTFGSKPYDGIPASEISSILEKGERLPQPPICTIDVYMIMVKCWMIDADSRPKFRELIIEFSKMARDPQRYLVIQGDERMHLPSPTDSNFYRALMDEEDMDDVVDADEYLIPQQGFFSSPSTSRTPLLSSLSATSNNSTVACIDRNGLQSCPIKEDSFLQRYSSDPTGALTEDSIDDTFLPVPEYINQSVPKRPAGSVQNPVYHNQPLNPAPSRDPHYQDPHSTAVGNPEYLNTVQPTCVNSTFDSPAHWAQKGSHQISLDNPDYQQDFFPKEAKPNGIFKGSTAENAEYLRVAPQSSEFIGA
Ba/F3 EGFR Del19/T790M mutants, sequence (P00533 with tags, fused parts or gaps DEL746-750/T790M, form open): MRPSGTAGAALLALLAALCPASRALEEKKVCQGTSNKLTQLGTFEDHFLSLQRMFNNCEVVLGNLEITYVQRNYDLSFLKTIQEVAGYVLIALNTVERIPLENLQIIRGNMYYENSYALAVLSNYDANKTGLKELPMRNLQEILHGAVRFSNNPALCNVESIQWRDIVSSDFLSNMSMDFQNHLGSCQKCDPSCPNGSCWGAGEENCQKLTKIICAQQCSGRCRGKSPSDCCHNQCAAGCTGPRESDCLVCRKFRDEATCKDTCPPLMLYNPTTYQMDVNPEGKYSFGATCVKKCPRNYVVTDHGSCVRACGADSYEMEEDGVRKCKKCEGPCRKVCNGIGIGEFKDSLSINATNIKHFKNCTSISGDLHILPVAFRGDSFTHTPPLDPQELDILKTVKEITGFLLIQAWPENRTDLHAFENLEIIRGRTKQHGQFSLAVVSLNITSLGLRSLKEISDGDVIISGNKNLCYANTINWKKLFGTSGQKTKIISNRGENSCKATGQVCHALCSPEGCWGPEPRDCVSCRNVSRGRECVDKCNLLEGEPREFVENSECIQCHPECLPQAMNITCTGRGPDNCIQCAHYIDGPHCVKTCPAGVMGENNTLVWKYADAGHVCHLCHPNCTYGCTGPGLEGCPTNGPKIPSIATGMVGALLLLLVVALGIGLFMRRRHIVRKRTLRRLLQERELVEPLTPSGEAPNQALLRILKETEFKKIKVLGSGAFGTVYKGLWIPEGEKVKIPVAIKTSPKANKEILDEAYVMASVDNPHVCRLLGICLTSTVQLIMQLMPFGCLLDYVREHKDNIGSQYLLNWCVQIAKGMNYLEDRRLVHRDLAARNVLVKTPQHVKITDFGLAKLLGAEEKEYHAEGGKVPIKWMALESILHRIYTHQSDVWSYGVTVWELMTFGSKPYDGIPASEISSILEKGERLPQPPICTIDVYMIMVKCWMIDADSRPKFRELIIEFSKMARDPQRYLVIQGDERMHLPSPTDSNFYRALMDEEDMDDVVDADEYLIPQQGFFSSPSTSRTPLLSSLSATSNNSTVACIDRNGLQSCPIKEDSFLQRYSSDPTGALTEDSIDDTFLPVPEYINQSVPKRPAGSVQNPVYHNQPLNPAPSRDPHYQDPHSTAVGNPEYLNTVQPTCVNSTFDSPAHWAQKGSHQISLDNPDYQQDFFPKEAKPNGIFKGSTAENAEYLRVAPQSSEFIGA

Take `COc1cc(C2CCN(C)CC2)ccc1Nc1ncc(Cl)c(Nc2ccc3nccnc3c2NS(C)(=O)=O)n1` [Example B23, N-(6-((5-chloro-2-((2-methoxy-4-(1-methylpiperidin-4-yl)phenyl)amino)pyrimidin-4-yl)amino)quinoxalin-5-yl)methanesulfonamide]: the GI50 in experiment [1] came out at 868 nM; in experiment [2], 302 nM; in experiment [3], 354 nM; in experiment [4], 154 nM; in experiment [5] it was 100 nM; in experiment [6], 112 nM.
For the compound `COc1cc(N2CCC(N3CCN(C)CC3)CC2)c(C)cc1Nc1ncc(C)c(Nc2ccc3nccnc3c2NS(C)(=O)=O)n1` [Example A21, N-(6-((2-((2-methoxy-5-methyl-4-(4-(4-methylpiperazin-1-yl)piperidin-1-yl)phenyl)amino)-5-methylpyrimidin-4-yl)amino)quinoxalin-5-yl)methane sulfonamide], the GI50 in experiment [1] was determined as 460 nM; in experiment [2] it was 52 nM; in experiment [3], 103 nM; in experiment [4], 24 nM; in experiment [5], 23 nM; in experiment [6] it was 58 nM.
As to `CCc1cc(Nc2ncc(Br)c(Nc3ccc4nccnc4c3NS(C)(=O)=O)n2)c(OC)cc1N1CCC(N2CC3CCC2CN3C)CC1` (stereo not drawn) [Example A46, N-(6-((5-bromo-2-((5-ethyl-2-methoxy-4-(4-(5-methyl-2,5-diazabicyclo[2.2.2]octan-2-yl)piperidin-1-yl)phenyl)amino)pyrimidin-4-yl)amino)quinoxalin-5-yl)methanesulfonamide], the GI50 in experiment [1] amounted to 739 nM; in experiment [2], 113 nM; in experiment [3], 43 nM; in experiment [4] it was 7 nM; in experiment [5] it was 12 nM; in experiment [6] it was 8 nM.
As for `COc1ccc(Nc2nc(Nc3cc(C)c(N4CCC(N5CCN(C)CC5)CC4)cc3OC)ncc2Br)c(NS(C)(=O)=O)c1` [Example C2, N-(2-((5-bromo-2-((2-methoxy-5-methyl-4-(4-(4-methylpiperazin-1-yl)piperidin-1-yl)phenyl)amino)pyrimidin-4-yl)amino)-5-methoxyphenyl)methanesulfonamide], the GI50 in experiment [1] was 385 nM; in experiment [2], 32 nM; in experiment [3], 18 nM; in experiment [4] it was 3 nM; in experiment [5] it was 13 nM; in experiment [6] it was 9 nM.
In the case of `COc1ccc(Nc2nc(Nc3cc(C)c(N4CCC(N5CCCC5)CC4)cc3OC)ncc2Cl)c(NS(C)(=O)=O)c1` [Example C11, N-(2-((5-chloro-2-((2-methoxy-5-methyl-4-(4-(pyrrolidin-1-yl)piperidin-1-yl)phenyl)amino)pyrimidin-4-yl)amino)-5-methoxyphenyl)methanesulfonamide], the GI50 in experiment [1] was 458 nM; in experiment [2], 45 nM; in experiment [3], 39 nM; in experiment [4], 5 nM; in experiment [5] it was 6 nM; in experiment [6], 9 nM.
In the case of `COc1cc(C2CCNCC2)ccc1Nc1ncc(Br)c(Nc2ccc3nccnc3c2NS(C)(=O)=O)n1` [Example B18, N-(6-((5-bromo-2-((2-methoxy-4-(piperidin-4-yl)phenyl)amino)pyrimidin-4-yl)amino)quinoxalin-5-yl)methanesulfonamide], the GI50 in experiment [1] was more than 2000 nM; in experiment [2] it was 1020 nM; in experiment [3], 1440 nM; in experiment [4], 598 nM; in experiment [5], 725 nM; in experiment [6], 818 nM.
Consider `COc1cc(N2CCC(N3CCN(C)CC3)CC2)c(C)cc1Nc1ncc(Br)c(Nc2ccc3nccnc3c2NS(C)(=O)=O)n1` [Example A4, N-(6-((5-bromo-2-((2-methoxy-5-methyl-4-(4-(4-methylpiperazin-1-yl)piperidin-1-yl)phenyl)amino)pyrimidin-4-yl)amino)quinoxalin-5-yl)methanesulfonamide], for which the GI50 in experiment [1] worked out at 249 nM; in experiment [2], 34 nM; in experiment [3] it was 6 nM; in experiment [4], 3 nM; in experiment [5], 12 nM; in experiment [6], 1 nM.
As to `CCc1cc(Nc2ncc(Br)c(Nc3ccc4nccnc4c3N(C)S(C)(=O)=O)n2)c(OC(C)C)cc1C1CCN(C)CC1` [Example B32, N-(6-((5-bromo-2-((5-ethyl-2-isopropoxy-4-(1-methylpiperidin-4-yl)phenyl)amino)pyrimidin-4-yl)amino)quinoxalin-5-yl)-N-methylmethanesulfonamide], the GI50 in experiment [1] was found to be 851 nM; in experiment [2], 200 nM; in experiment [3] it was 83 nM; in experiment [4] it was 154 nM; in experiment [5], 172 nM; in experiment [6], 29 nM.
Take `CCc1cc(Nc2ncc(Cl)c(Nc3ccc4nccnc4c3NS(C)(=O)=O)n2)c(OC)cc1N1CC2(C1)CN(C(C)C)C2` [Example B26, N-(6-((5-chloro-2-((5-ethyl-4-(6-isopropyl-2,6-diazaspiro[3.3]heptan-2-yl)-2-methoxyphenyl)amino)pyrimidin-4-yl)amino)quinoxalin-5-yl)methanesulfonamide]: the GI50 turned out to be 528 nM in experiment [1]; 59 nM in experiment [2]; 61 nM in experiment [3]; 38 nM in experiment [4]; 42 nM in experiment [5]; 9 nM in experiment [6].
For the compound `COc1cc(N2CCC(N(C)C)CC2)c(C)cc1Nc1ncc(Br)c(Nc2ccc3nccnc3c2NS(C)(=O)=O)n1` [Example B1, N-(6-((5-bromo-2-((4-(4-(dimethylamino)piperidin-1-yl)-2-methoxy-5-methylphenyl)amino)pyrimidin-4-yl)amino)quinoxalin-5-yl)methanesulfonamide], the GI50 in experiment [1] was 302 nM; in experiment [2], 64 nM; in experiment [3] it was 28 nM; in experiment [4] it was 8 nM; in experiment [5], 38 nM; in experiment [6], 7 nM.
As for `COc1cc(N2CCC(N3CCN(C)CC3)CC2)c(C)cc1Nc1ncc(Br)c(Nc2cccc(OC)c2N(C)S(C)(=O)=O)n1` [Example C21, N-(2-((5-bromo-2-((2-methoxy-5-methyl-4-(4-(4-methylpiperazin-1-yl)piperidin-1-yl)phenyl)amino)pyrimidin-4-yl)amino)-6-methoxyphenyl)-N-methylmethanesulfonamide], the GI50 stood at 660 nM in experiment [1]; 61 nM in experiment [2]; 49 nM in experiment [3]; 18 nM in experiment [4]; 10 nM in experiment [5]; 13 nM in experiment [6].
On to `CCc1cc(Nc2ncc(Br)c(N(C)c3ccc4nccnc4c3N(C)S(C)(=O)=O)n2)c(OC)cc1N1CCC(N(C)C)CC1` [Example B19, N-(6-((5-bromo-2-((4-(4-(dimethylamino)piperidin-1-yl)-5-ethyl-2-methoxyphenyl)amino)pyrimidin-4-yl)(methyl)amino)quinoxalin-5-yl)-N-methylmethane sulfonamide], for which the GI50 in experiment [1] came out at 1410 nM; in experiment [2], 182 nM; in experiment [3], 82 nM; in experiment [4], 20 nM; in experiment [5], 36 nM; in experiment [6], 25 nM.
With `CCc1cc(Nc2ncc(Br)c(Nc3ccc4nccnc4c3N(C)S(C)(=O)=O)n2)c(OC)cc1N1CC2(C1)CN(C(C)C)C2` [Example B29, N-(6-((5-bromo-2-((5-ethyl-4-(6-isopropyl-2,6-diazaspiro[3.3]heptan-2-yl)-2-methoxyphenyl)amino)pyrimidin-4-yl)amino)quinoxalin-5-yl)-N-methylmethanesulfonamide], the GI50 is 317 nM in experiment [1]; 27 nM in experiment [2]; 68 nM in experiment [3]; 9 nM in experiment [4]; 14 nM in experiment [5]; 2 nM in experiment [6].
With `CCCc1cc(Nc2ncc(Cl)c(Nc3cccc(OC)c3NS(C)(=O)=O)n2)c(OC)cc1N1CCC(N2CCOCC2)CC1` [Example C23, N-(2-((5-chloro-2-((2-methoxy-4-(4-morpholinopiperidin-1-yl)-5-propylphenyl)amino)pyrimidin-4-yl)amino)-6-methoxyphenyl)methanesulfonamide], the GI50 in experiment [1] worked out at 1680 nM; in experiment [2], 72 nM; in experiment [3], 137 nM; in experiment [4], 30 nM; in experiment [5] it was 14 nM; in experiment [6], 10 nM.
As for `COC(=O)Nc1c(Nc2nc(Nc3ccc(C4CCNCC4)cc3OC)ncc2Cl)ccc2nccnc12` [Example D4, methyl (6-((5-chloro-2-((2-methoxy-4-(piperidin-4-yl)phenyl)amino)pyrimidin-4-yl)amino)quinoxalin-5-yl)carbamate], the GI50 was more than 2000 nM in experiment [1]; 1570 nM in experiment [2]; more than 2000 nM in experiment [3]; 694 nM in experiment [4]; 746 nM in experiment [5]; 870 nM in experiment [6].
